Key:
NURR-1/RXRα = target: T1, NURR-1/RXRα (Homo sapiens, UniProt P19793); assay: Transactivation test, NURR-1-Gal4/RXRα, luciferase reporter in Cos-7 cells; type: cell-based; details: for Emax: COS-7, induction level relative to reference XCT0135908 at 2×10^−5 M (=100%), read-out: hNurr1_RXRaFL Emax (%); for EC50: Cos-7 cells, NURR-1-Gal4/RXRα, luciferase reporter, read-out: hNurr1_RXRaFL EC50
T1 construct: expressed in transfected cells; host or cells: Cos-7 cells
Description: (§1) The ability of the compounds according to the invention to behave as an activator of the heterodimers formed by the NURR-1 nuclear receptor and the RXR nuclear receptors was measured by means of an in vitro test. A transactivation test was used as primary selection (screening) test. Cos-7 cells were cotransfected with a plasmid expressing a chimera of the human NURR-1-Gal4 receptor, a plasmid expressing the human RXR receptor (RXRα or RXRγ receptor) and a 5Gal4pGL3-TK-Luc reporter plasmid. The transfctions were carried out using a chemical agent (Jet PEI). The transfected cells were distributed into 384-well plates and left to stand for 21 hours. At time 24 hours the culture medium was changed. The test products were added (final concentration of between 10^''4 and 3×10^-10 M) to the culture medium. After incubation overnight, the lucifeiase expression was measured after addition of SteadyGlo according to the instructions of the manufacturer (Promega). […] The induction levels (Emax) were calculated relative to the basal activity of each heterodimer.

NURR-1/RXRγ = target: T2, NURR-1/RXRγ (Homo sapiens, UniProt P48443); assay: Transactivation test, NURR-1-Gal4/RXRγ, luciferase reporter in Cos-7 cells; type: cell-based; details: for Emax: COS-7, induction level relative to reference XCT0135908 at 2×10^−5 M (=100%), read-out: hNurr1_RXRgFL Emax (%); for EC50: Cos-7 cells, NURR-1-Gal4/RXRγ, luciferase reporter, read-out: hNurr1_RXRgFL EC50
T2 construct: expressed in transfected cells; host or cells: Cos-7 cells
Description: as §1

[1] = induction level relative to reference XCT0135908 at 2×10^−5 M (=100%)

T1 sequence (P19793 whole entry, the tested form may be a part): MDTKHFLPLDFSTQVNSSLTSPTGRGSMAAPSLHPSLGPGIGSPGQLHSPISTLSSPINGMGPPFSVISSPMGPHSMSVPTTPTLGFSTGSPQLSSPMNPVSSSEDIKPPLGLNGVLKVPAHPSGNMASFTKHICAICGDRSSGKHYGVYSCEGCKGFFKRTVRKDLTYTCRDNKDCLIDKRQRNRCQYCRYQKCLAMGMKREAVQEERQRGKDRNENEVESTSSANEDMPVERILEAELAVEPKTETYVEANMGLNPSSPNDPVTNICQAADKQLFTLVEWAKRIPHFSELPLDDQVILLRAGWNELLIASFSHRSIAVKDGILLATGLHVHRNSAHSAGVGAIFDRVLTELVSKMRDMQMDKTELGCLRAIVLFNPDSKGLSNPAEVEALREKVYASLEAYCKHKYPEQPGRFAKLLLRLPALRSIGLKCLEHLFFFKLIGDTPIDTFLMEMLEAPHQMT
T1 sequence (P43354 whole entry partner, the tested form may be a part): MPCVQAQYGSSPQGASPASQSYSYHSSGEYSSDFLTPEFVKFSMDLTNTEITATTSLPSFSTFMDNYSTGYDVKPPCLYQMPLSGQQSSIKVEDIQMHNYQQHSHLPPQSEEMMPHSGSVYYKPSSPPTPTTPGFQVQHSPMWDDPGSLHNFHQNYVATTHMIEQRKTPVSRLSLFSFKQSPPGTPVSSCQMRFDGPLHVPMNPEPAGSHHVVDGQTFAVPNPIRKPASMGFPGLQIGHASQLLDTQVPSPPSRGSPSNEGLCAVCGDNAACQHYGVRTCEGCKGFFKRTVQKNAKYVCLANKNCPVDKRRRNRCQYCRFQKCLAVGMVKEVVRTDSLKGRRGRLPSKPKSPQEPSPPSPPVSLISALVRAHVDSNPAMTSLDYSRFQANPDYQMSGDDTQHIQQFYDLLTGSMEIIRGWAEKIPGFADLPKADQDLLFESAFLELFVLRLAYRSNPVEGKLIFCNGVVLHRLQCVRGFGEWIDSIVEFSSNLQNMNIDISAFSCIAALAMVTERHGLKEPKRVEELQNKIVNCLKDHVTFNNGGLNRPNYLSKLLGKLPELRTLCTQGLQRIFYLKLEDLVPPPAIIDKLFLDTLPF
T1 sequence (P04386 1-147 partner limits assumed): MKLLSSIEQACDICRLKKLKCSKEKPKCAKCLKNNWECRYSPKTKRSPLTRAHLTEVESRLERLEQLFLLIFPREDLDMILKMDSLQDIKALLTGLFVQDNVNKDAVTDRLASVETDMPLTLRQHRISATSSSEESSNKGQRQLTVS
T2 sequence (P48443 whole entry, the tested form may be a part): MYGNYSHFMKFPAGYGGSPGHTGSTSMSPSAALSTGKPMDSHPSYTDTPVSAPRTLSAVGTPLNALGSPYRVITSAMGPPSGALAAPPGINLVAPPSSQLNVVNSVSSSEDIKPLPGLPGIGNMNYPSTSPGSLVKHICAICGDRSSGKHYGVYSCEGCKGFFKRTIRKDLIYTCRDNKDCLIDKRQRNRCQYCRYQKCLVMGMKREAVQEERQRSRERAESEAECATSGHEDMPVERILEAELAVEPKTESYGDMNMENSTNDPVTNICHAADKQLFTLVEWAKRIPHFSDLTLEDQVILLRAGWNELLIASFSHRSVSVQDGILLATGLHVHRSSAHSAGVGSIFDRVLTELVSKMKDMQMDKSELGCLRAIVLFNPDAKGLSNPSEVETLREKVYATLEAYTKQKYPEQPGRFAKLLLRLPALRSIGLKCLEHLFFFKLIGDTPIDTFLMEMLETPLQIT
T2 sequence (P43354 whole entry partner, the tested form may be a part): as the sequence (P43354 whole entry partner, the tested form may be a part) above
T2 sequence (P04386 1-147 partner limits assumed): as the sequence (P04386 1-147 partner limits assumed) above

Row | SMILES | Emax (NURR-1/RXRα) | EC50 (NURR-1/RXRα) | Emax (NURR-1/RXRγ) | EC50 (NURR-1/RXRγ) | hNurr1_RXRaFL Emax (%) (NURR-1/RXRα; [1]) | hNurr1_RXRgFL Emax (%) (NURR-1/RXRγ; [1])
1 | O=C(O)C1CN(c2cccc(-c3cncc(C(F)(F)F)c3)c2)C1 [Example 34, 1-[3-[5-(trifluoromethyl)3-pyridyl]phenyl]azetidine-3-carboxylic acid] | 69% | > 5000 nM | 64% | > 5000 nM | – | –
2 | Cc1nc(C(F)(F)F)nc(-c2cccc(N3CC(C(=O)O)C3)c2)c1C [Example 35, 1-[3-[5,6-dimethyl-2-(trifloruomethyl)pyrrimidin-4-yl]phenyl]azetidine-3-carboxylic acid] | 45% | > 5000 nM | 44% | > 5000 nM | – | –
3 | O=C(O)C1CN(c2cccc(-c3ncc(Cl)c4ccccc34)c2)C1 [Example 36, 1-[3-(4-chloro-1-isoquinolyl)phenyl]azetidine-3-carboxylic acid] | 140% | 449 nM | 121% | 1000 nM | – | –
4 | O=C(O)C1CN(c2cccc(-c3cc4ccccc4c(Cl)n3)c2)C1 [Example 37, 1-[3-(1-chloro-3-isoquinoyl)phenyl]azetidine-3-carboxylic acid] | 62% | > 5000 nM | 99% | 3820 nM | – | –
5 | O=C(O)C1CN(c2cccc(-c3cccc(C(F)(F)F)n3)c2)C1 [Example 38, 1-[3-[6-(trifluoromethyl)-2-pyridyl]phenyl]azetidine-3-carboxylic acid] | 75% | > 5000 nM | 33% | > 5000 nM | – | –
6 | Cc1cc(-c2cccc(N3CC(C(=O)O)C3)c2)nc(-c2ccccc2)n1 [Example 39, 1-[3-(6-methyl-2-phenylpyrimidin-4-yl)phenyl]azetidine-3-carboxylic acid] | 104% | 208 nM | 110% | 472 nM | – | –
7 | O=C(O)C1CN(c2cccc(-c3cccc(-c4ccccc4)n3)c2)C1 [Example 40, 1-[3-(6-phenyl-2-pyridyl)phenyl]azetidine-3-carboxylic acid] | 80% | 557 nM | 62% | 880 nM | – | –
8 | Cc1cn(-c2cccc(N3CC(C(=O)O)C3)c2)c2ccc(C(F)(F)F)cc12 [Example 41, 1-[3-[3-methyl-5-(trifluoromethyl)indol-1-yl]phenyl]azetidine-3-carboxylic acid] | 134% | 0.5 nM | 123% | 0.7 nM | – | –
9 | Cc1cn(-c2cc(Cl)cc(N3CC(C(=O)O)C3)c2)c2ccc(C(F)(F)F)cc12 [Example 42, 1-[3-chloroe-5-[3-methyl-5-(trifluoromethyl)indol-1-yl]phenyl]azetidine-3-carboxylic acid] | 81% | 5 nM | 67% | > 5000 nM | – | –
10 | Cc1cn(-c2cc(N3CC(C(=O)O)C3)cc(C(F)(F)F)c2)c2ccc(C(F)(F)F)cc12 [Example 43, 1-[3-[3-methyl-5-(trifluoromethyl)indol-1-yl]-5-(trifluoromethyl)phenyl]azetidine-3-carboxylic acid] | 84% | 6 nM | 90% | 9 nM | – | –
11 | O=C(O)C1CN(c2cccc(-n3ccc4cc(C(F)(F)F)ccc43)c2)C1 [Example 44, 1-[3-[5-(trifluoromethyl)indol-1-yl]phenyl]azetidine-3-carboxylic acid] | 108% | 7 nM | 108% | 8 nM | – | –
12 | Cc1cc(N2CC(C(=O)O)C2)cc(-n2cc(C)c3cc(Cl)ccc32)c1 [Example 45] | 96% | 2 nM | 107% | 3 nM | – | –
13 | Cc1cn(-c2cccc(N3CC(C(=O)O)C3)c2)c2ccc(C3CC3)cc12 [Example 46] | 104% | 19 nM | 130% | 31 nM | – | –
14 | COc1ccc2c(ccn2-c2cc(C)cc(N3CC(C(=O)O)C3)c2)c1 [Example 47, 1-[3-(5-methoxyindol-1-yl)-5-methylphenyl]azetidine-3-carboxylic acid] | 91% | 368 nM | 95% | 542 nM | – | –
15 | COc1ccc2c(c1)c(C)cn2-c1cc(C)cc(N2CC(C(=O)O)C2)c1 [Example 48, 1-[3-(5-methoxy-3-methylindol-1-yl)-5-methylphenyl]azetidine-3-carboxylic acid] | 96% | 37 nM | 129% | 123 nM | – | –
16 | Cc1cc(N2CC(C(=O)O)C2)cc(-n2cc(C)c3cc(C(F)(F)F)ccc32)c1 [Example 49, 1-[3-methyl-5-[3-methyl-5-(trifluoromethyl)indol-1-yl]phenyl]azetidine-3-carboxylic acid] | 99% | 1 nM | 114% | 1 nM | – | –
17 | COc1cc(N2CC(C(=O)O)C2)cc(-n2cc(C)c3cc(C(F)(F)F)ccc32)c1 [Example 51, 1-[3-methoxy-5-[3-methyl-5-(trifluoromethyl)indol-1-yl]phenyl]azetidine-3-carboxylic acid] | 91% | 17 nM | 106% | 29 nM | – | –
18 | Cc1cn(-c2cc(OC(F)(F)F)cc(N3CC(C(=O)O)C3)c2)c2ccc(C(F)(F)F)cc12 [Example 52, 1-[3-[3-methyl-5-(trifluoromethyl)indol-1-yl]-5-(trifluoromethoxy)phenyl]azetidine-3-carboxylic acid] | 86% | 83 nM | 117% | 117 nM | – | –
19 | Cc1cn(-c2cc(C(C)C)cc(N3CC(C(=O)O)C3)c2)c2ccc(C(F)(F)F)cc12 [Example 53, 1-[3-isopropyl-5-[3-methyl-5-(trifluoromethyl)indol-1-yl]phenyl]azetidine-3-carboxylic acid] | 83% | 141 nM | 76% | 212 nM | – | –
20 | Cc1cn(-c2cc(OC(C)C)cc(N3CC(C(=O)O)C3)c2)c2ccc(C(F)(F)F)cc12 [Example 54, 1-[3-isopropoxy-5-[3-methyl-5-(trifloruomethyl)indol-1-yl]phenyl]azetidine-3-carboxylic acid] | 76% | 1400 nM | 100% | 2240 nM | – | –
21 | Cc1cc(N2CC(C)(C(=O)O)C2)cc(-n2cc(C)c3cc(C(F)(F)F)ccc32)c1 [Example 55, 3-methyl-1-[3-methyl-5-[3-methyl-5-(trifluoromethyl)indol-1-yl]phenyl]azetidine-3-carboxylic acid] | 80% | 189 nM | 73% | 218 nM | – | –
22 | Cc1cn(-c2cc(N3CC(C(=O)O)C3)cc(C(C)(C)C)c2)c2ccc(C(F)(F)F)cc12 [Example 56, 1-[3-tert-butyl-5-[3-methyl-5-(trifluoromethyl)indol-1-yl]phenyl]azetidine-3-carboxylic acid] | 46% | > 5000 nM | 38% | 1080 nM | – | –
23 | Cc1cc(N2CC(C(=O)O)C2)cc(-n2cc(Cl)c3cc(C(F)(F)F)ccc32)c1 [Example 57, 1-[3-[3-chloro-5-(triflurooemthyl)indol-1-yl]-5-methylphenyl]azetidine-3-carboxylic acid] | – | 1 nM | – | 2 nM | 126% | 114%
